Earlier results in patent publication US20100331420A1, “Combination Therapies for the Treatment of Obesity” (priority 2009, published 2010).

Details: published studies of each weight loss medication
In the case of `CCN[C@@H](C)Cc1cccc(C(F)(F)F)c1` [dexfenfluramine], the “weight loss of body weight for drug compared with placebo” value (“weight loss … compared with placebo” for short) is listed as “about 5%”. In the case of `CCCCCCCCCCC[C@@H](C[C@@H]1OC(=O)[C@H]1CCCCCC)OC(=O)[C@H](CC(C)C)NC=O` [orlistat], the “weight loss … compared with placebo” value is listed as “about 5%”. In the case of `CC(C)CC(N(C)C)C1(c2ccc(Cl)cc2)CCC1` (stereo not drawn) [sibutramine], the “weight loss … compared with placebo” value is given as “about 5%”.
